Reference: PubChem BioAssay AID328 (DTP/NCI, 2004)
Where “and” joins values, the source holds several entries; their conditions need not be identical. Equal entries are not always repeated. Toxic doses and inconclusive results are not listed.

Test system: BDF1 mice, P388 leukemia ip, median survival T/C
Experiment: NCI In Vivo Anticancer Drug Screen. Data for tumor model P388 Leukemia (intraperitoneal) in B6D2F1 (BDF1) mice
Conditions: endpoint: median survival time, higher = longer survival
Method in brief: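 Vehicle-dosed animals serve as the reference; survival of compound-dosed, tumour-implanted mice is divided by it.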

[1] = dose: 100.0 mg/kg/injection, schedule: Q04DX003 (ip), vehicle: Klucel (hydroxypropylcellulose) (HPC)
[2] = dose: 400.0 mg/kg/injection, schedule: Q04DX003 (ip), vehicle: Klucel (hydroxypropylcellulose) (HPC)
[3] = dose: 100.0 mg/kg/injection, schedule: Q04DX003 (ip), vehicle: saline with Tween-80
[4] = dose: 200.0 mg/kg/injection, schedule: Q04DX003 (ip), vehicle: saline with Tween-80
[5] = dose: 400.0 mg/kg/injection, schedule: Q04DX003 (ip), vehicle: saline with Tween-80
[6] = dose: 100.0 mg/kg/injection, schedule: Q01DX009 (ip), vehicle: saline with Tween-80
[7] = dose: 200.0 mg/kg/injection, schedule: Q01DX009 (ip), vehicle: saline with Tween-80
[8] = dose: 400.0 mg/kg/injection, schedule: Q01DX009 (ip), vehicle: saline with Tween-80
[9] = dose: 100.0 mg/kg/injection, schedule: Q01DX009 (ip), vehicle: Klucel (hydroxypropylcellulose) (HPC)
[10] = dose: 200.0 mg/kg/injection, schedule: Q01DX009 (ip), vehicle: Klucel (hydroxypropylcellulose) (HPC)
[11] = dose: 50.0 mg/kg/injection, schedule: Q01DX009 (ip), vehicle: saline with Tween-80
[12] = dose: 40.0 mg/kg/injection, schedule: Q01DX009 (ip), vehicle: saline
[13] = dose: 12.5 mg/kg/injection, schedule: Q01DX009 (ip), vehicle: saline with Tween-80
[14] = dose: 25.0 mg/kg/injection, schedule: Q01DX009 (ip), vehicle: saline with Tween-80
[15] = dose: 50.0 mg/kg/injection, schedule: Q04DX003 (ip), vehicle: saline with Tween-80
[16] = dose: 6.25 mg/kg/injection, schedule: Q01DX009 (ip), vehicle: saline
[17] = dose: 12.5 mg/kg/injection, schedule: Q01DX009 (ip), vehicle: saline
[18] = dose: 25.0 mg/kg/injection, schedule: Q01DX009 (ip), vehicle: saline

For `Cc1ccc(S(=O)(=O)N/N=C/c2ccccc2)cc1`, the T/C (dose: 25.0 mg/kg/injection, schedule: Q04DX003 (ip), vehicle: Klucel (hydroxypropylcellulose) (HPC)) was 93 % of control, the T/C (dose: 50.0 mg/kg/injection, schedule: Q04DX003 (ip), vehicle: Klucel (hydroxypropylcellulose) (HPC)) was 97 % of control and the T/C [1] was 103 % of control. For the same molecule, the T/C [2] was 106 % of control.

`N#CC12CC3CC(CC(C3)C1)C2` was tested, and the T/C (dose: 5.0 mg/kg/injection, schedule: Q01DX009 (ip), vehicle: saline with Tween-80) was 100 % of control and the T/C (dose: 20.0 mg/kg/injection, schedule: Q01DX009 (ip), vehicle: saline with Tween-80) was 88 % of control.

In the case of `CCCCNC(=O)Nc1ccccc1Cl`, the T/C [3] is reported as 100 % of control, the T/C [4] is reported as 100 % of control and the T/C [5] is reported as 95 % of control.

With `CCN(O)C(N)=O` the T/C [6] was 108 % of control, the T/C [3] was 96 % of control and 104 % of control and the T/C [7] was 100 % of control. The T/C [4] was 88 % of control and 91 % of control, the T/C [8] was 100 % of control and the T/C [5] was 96 % of control and 100 % of control.

`CN1CC(=O)N=C1N` was tested, and the T/C [9] was 90 % of control, the T/C [10] was 95 % of control and the T/C (dose: 400.0 mg/kg/injection, schedule: Q01DX009 (ip), vehicle: Klucel (hydroxypropylcellulose) (HPC)) was 100 % of control.

For `OC(CNc1ccc(Cl)cc1)COc1ccc(Cl)cc1Cl` (stereo not drawn), the T/C (dose: 50.0 mg/kg/injection, schedule: Q01DX009 (ip), vehicle: Klucel (hydroxypropylcellulose) (HPC)) was 100 % of control, the T/C [9] was 101 % of control and the T/C [10] was 102 % of control.

With `CCCC=C=CCN(C)C` the T/C (dose: 12.5 mg/kg/injection, schedule: Q04DX002 (ip), vehicle: saline) was 96 % of control, the T/C (dose: 25.0 mg/kg/injection, schedule: Q04DX002 (ip), vehicle: saline) was 100 % of control and the T/C (dose: 50.0 mg/kg/injection, schedule: Q04DX002 (ip), vehicle: saline) was 112 % of control.

For `O=Cc1ccc(C(=O)O)cc1`, the T/C [3] was 100 % of control, the T/C [4] was 109 % of control and the T/C [5] was 113 % of control.

In the case of `CCCCCCSc1ncnc2nc[nH]c12`, the T/C [6] is reported as 109 % of control, the T/C [3] is reported as 100 % of control and the T/C [7] is reported as 100 % of control. For the same molecule, the T/C [4] was 100 % of control and the T/C [5] was 95 % of control.

In the case of `CC(C)/[N+]([O-])=C/C=C/c1ccccc1`, the T/C [1] is reported as 100 % of control, the T/C (dose: 200.0 mg/kg/injection, schedule: Q04DX003 (ip), vehicle: Klucel (hydroxypropylcellulose) (HPC)) is reported as 100 % of control and the T/C [2] is reported as 113 % of control.

`O=C(/C=C/c1ccc(OCc2ccccc2)cc1)c1ccc(Cl)cc1Cl` was tested, and the T/C [11] was 91 % of control, the T/C [6] was 89 % of control and the T/C [7] was 89 % of control.

For `C[n+]1ccc2cc(-c3ccccc3)c3ccccc3c2c1`, the T/C (dose: 0.06 mg/kg/injection, schedule: Q01DX009 (ip), vehicle: water) was 100 % of control, the T/C (dose: 0.12 mg/kg/injection, schedule: Q01DX009 (ip), vehicle: water) was 88 % of control and the T/C (dose: 0.25 mg/kg/injection, schedule: Q01DX009 (ip), vehicle: water) was 89 % of control. The T/C (dose: 0.5 mg/kg/injection, schedule: Q01DX009 (ip), vehicle: water) was 100 % of control, the T/C (dose: 1.0 mg/kg/injection, schedule: Q01DX009 (ip), vehicle: water) was 100 % of control and 101 % of control and the T/C (dose: 2.0 mg/kg/injection, schedule: Q01DX009 (ip), vehicle: water) was 101 % of control. The T/C (dose: 4.0 mg/kg/injection, schedule: Q01DX009 (ip), vehicle: water) was 99 % of control.

`c1ccc2c(c1)nnn1c3ncccc3nc21` was tested, and the T/C [11] was 115 % of control.

In the case of `CC(C)CCCC(C)C1CCC2C3CC=C4CC([Se][As](C)C)CCC4(C)C3CCC12C` (stereo not drawn), the T/C [11] is reported as 118 % of control and the T/C [6] is reported as 111 % of control.

In the case of `CC(=O)Oc1cc2c[n+](C)c3c4cc(OC(C)=O)c(OC(C)=O)cc4ccc3c2cc1OC(C)=O`, the T/C (dose: 20.0 mg/kg/injection, schedule: Q01DX009 (ip), vehicle: saline) is reported as 95 % of control, the T/C [12] is reported as 104 % of control and the T/C (dose: 80.0 mg/kg/injection, schedule: Q01DX009 (ip), vehicle: saline) is reported as 109 % of control. The T/C (dose: 120.0 mg/kg/injection, schedule: Q01DX009 (ip), vehicle: saline) was 118 % of control.

In the case of `O=C1c2ccccc2C2CCCC12` (stereo not drawn), the T/C [11] is reported as 105 % of control, the T/C [6] is reported as 120 % of control and the T/C [7] is reported as 112 % of control.

`COc1cccc2c1C(=O)c1c(O)c3c(c(O)c1C2=O)CC(O)(/C(C)=N/NC(=O)CC(=O)N/N=C(\C)C1(O)Cc2c(O)c4c(c(O)c2C(OC2CC(N)C(O)C(C)O2)C1)C(=O)c1c(OC)cccc1C4=O)CC3OC1CC(N)C(O)C(C)O1` (stereo not drawn) was tested, and the T/C (dose: 3.13 mg/kg/injection, schedule: Q01DX009 (ip), vehicle: water) was 157 % of control and the T/C (dose: 6.25 mg/kg/injection, schedule: Q01DX009 (ip), vehicle: water) was 186 % of control.

In the case of `CCCCN(CCCC)CC(O)c1cc(Cl)cc2c1-c1ccc(Cl)cc1C2` (stereo not drawn), the T/C [11] is reported as 105 % of control, the T/C [6] is reported as 114 % of control and the T/C [7] is reported as 98 % of control.

In the case of `COc1ccccc1C(=O)/C=C\c1ccc(OCc2ccccc2)cc1`, the T/C [11] is reported as 89 % of control, the T/C [6] is reported as 86 % of control and the T/C [7] is reported as 87 % of control.

In the case of `CCOC(=O)C(=CNc1ccccc1OC)C(=O)OCC`, the T/C (dose: 1.56 mg/kg/injection, schedule: Q01DX009 (ip), vehicle: saline with Tween-80) is reported as 112 % of control, the T/C (dose: 3.12 mg/kg/injection, schedule: Q01DX009 (ip), vehicle: saline with Tween-80) is reported as 104 % of control and the T/C (dose: 6.25 mg/kg/injection, schedule: Q01DX009 (ip), vehicle: saline with Tween-80) is reported as 102 % of control. For the same molecule, the T/C [13] was 102 % of control and 116 % of control, the T/C [14] was 98 % of control and 123 % of control and the T/C [11] was 100 % of control and 116 % of control and 121 % of control. The T/C [15] was 99 % of control, the T/C [6] was 102 % of control and 114 % of control and the T/C [3] was 96 % of control. The T/C [7] was 109 % of control, the T/C [4] was 96 % of control and the T/C [8] was 106 % of control. The T/C [5] was 96 % of control.

In the case of `S=c1[nH]c2nc(Cl)c(Cl)nc2[nH]1`, the T/C [13] is reported as 94 % of control, the T/C [14] is reported as 92 % of control and 115 % of control and the T/C [11] is reported as 102 % of control. The T/C [15] was 94 % of control, the T/C [6] was 94 % of control and 99 % of control and the T/C [3] was 92 % of control. For the same molecule, the T/C [4] was 94 % of control and the T/C (dose: 300.0 mg/kg/injection, schedule: Q01DX009 (ip), vehicle: saline with Tween-80) was 105 % of control.

With `COc1c(OC)c(OC)c(C(=O)/C=C/c2ccccc2)c(OC)c1OC` the T/C [14] was 104 % of control, the T/C [11] was 104 % of control and the T/C [6] was 99 % of control.

For `CCOC1c2cnc(C)n2C=CN1C(C)=O` (stereo not drawn), the T/C (dose: 50.0 mg/kg/injection, schedule: Q04DX003 (ip), vehicle: water) was 109 % of control, the T/C (dose: 100.0 mg/kg/injection, schedule: Q04DX003 (ip), vehicle: water) was 100 % of control and 104 % of control and the T/C (dose: 200.0 mg/kg/injection, schedule: Q04DX003 (ip), vehicle: water) was 101 % of control and 111 % of control. For the same molecule, the T/C (dose: 300.0 mg/kg/injection, schedule: Q04DX003 (ip), vehicle: water) was 110 % of control and the T/C (dose: 400.0 mg/kg/injection, schedule: Q04DX003 (ip), vehicle: water) was 118 % of control.

`O=C1C=CC(=O)N1c1ccc(Br)cc1Cl` was tested, and the T/C (dose: 1.0 mg/kg/injection, schedule: Q04DX003 (ip), vehicle: saline) was 155 % of control and the T/C (dose: 2.0 mg/kg/injection, schedule: Q04DX003 (ip), vehicle: saline) was 122 % of control.

For `O=C(NC(=S)Nc1ccccc1C(=O)O)c1ccccc1`, the T/C [15] was 104 % of control, the T/C [3] was 100 % of control and the T/C [4] was 90 % of control.

`C=C1C(=O)OC2CC(C)C3C4OC4C(O)C3(C)C(O)C12` (stereo not drawn) was tested, and the T/C [16] was 100 % of control, the T/C (dose: 9.38 mg/kg/injection, schedule: Q01DX009 (ip), vehicle: saline) was 111 % of control and the T/C [17] was 100 % of control. The T/C (dose: 16.5 mg/kg/injection, schedule: Q01DX009 (ip), vehicle: saline) was 101 % of control, the T/C (dose: 18.75 mg/kg/injection, schedule: Q01DX009 (ip), vehicle: saline) was 120 % of control and the T/C [18] was 104 % of control and 108 % of control. The T/C (dose: 37.5 mg/kg/injection, schedule: Q01DX009 (ip), vehicle: saline) was 112 % of control and the T/C (dose: 56.25 mg/kg/injection, schedule: Q01DX009 (ip), vehicle: saline) was 110 % of control.

`Cc1nc2ccc(O)cc2cc1CBr` was tested, and the T/C [16] was 94 % of control and 105 % of control and 106 % of control, the T/C (dose: 6.25 mg/kg/injection, schedule: Q04DX003 (ip), vehicle: saline) was 98 % of control and the T/C [17] was 101 % of control and 113 % of control and 118 % of control. For the same molecule, the T/C (dose: 12.5 mg/kg/injection, schedule: Q04DX003 (ip), vehicle: saline) was 107 % of control, the T/C [18] was 112 % of control and 119 % of control and the T/C (dose: 25.0 mg/kg/injection, schedule: Q04DX003 (ip), vehicle: saline) was 107 % of control. For the same molecule, the T/C [12] was 103 % of control and the T/C (dose: 50.0 mg/kg/injection, schedule: Q04DX003 (ip), vehicle: saline) was 107 % of control.
